Data published in article PMC10497752, “Heparins are potent inhibitors of ectonucleotide pyrophosphatase/phospho-diesterase-1 (NPP1) – a promising target for the immunotherapy of cancer” (Frontiers in Immunology, 2023).

Assays:
human NPP4 = biological target: T1, human NPP4 (Homo sapiens, UniProt Q9Y6X5); test: NPP4 luminescence-based assay, Ap4A as substrate; type: biochemical; settings: 20 µg/mL (12 µM)
T1 construct: as a substrate and human soluble NPP4; made in house
T1 sequence (Q9Y6X5 16-407 limits assumed): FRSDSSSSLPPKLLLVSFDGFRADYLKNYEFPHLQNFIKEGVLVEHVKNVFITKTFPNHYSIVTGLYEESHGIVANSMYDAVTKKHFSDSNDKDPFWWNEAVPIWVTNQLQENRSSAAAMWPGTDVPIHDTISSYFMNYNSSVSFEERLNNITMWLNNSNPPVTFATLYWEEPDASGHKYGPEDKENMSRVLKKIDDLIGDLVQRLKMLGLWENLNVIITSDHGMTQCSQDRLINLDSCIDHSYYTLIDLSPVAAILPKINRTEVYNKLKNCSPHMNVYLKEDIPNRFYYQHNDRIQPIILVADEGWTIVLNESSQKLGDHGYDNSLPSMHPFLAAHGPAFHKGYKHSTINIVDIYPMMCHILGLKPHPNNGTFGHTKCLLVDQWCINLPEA
Experimental: Selectivity studies on NPP4 were performed using a published luminescence-based assay versus 20 μM of diadenosine tetraphosphate (Ap4A) as a substrate and human soluble NPP4 ([24]). The assay buffer consisted of 10 mM HEPES, 1 mM MgCl2, and 2 mM CaCl2 (pH 8.00). The enzyme reaction was started by adding 0.14 μg of purified human NPP4 to the reaction mixture, which was incubated at 37°C for 90 min. The released product ATP was quantified using the luciferin-luciferase reaction. The firefly luciferase reacts with D-luciferin in the presence of the formed ATP and Mg^2+. The resulting luminescence is a measure of the enzymatic activity, and the luminescence was read at 560 nm using a microplate reader (BMG PheraStar). Three independent experiments were performed, each in duplicate measurements; positive and negative controls were included.

human CD73 = biological target: T2, human CD73 (Homo sapiens, UniProt P21589); test: CD73 radioactive assay, [2,8-3H]AMP; type: biochemical; settings: 20 µg/mL (12 µM)
T2 sequence (P21589 27-574): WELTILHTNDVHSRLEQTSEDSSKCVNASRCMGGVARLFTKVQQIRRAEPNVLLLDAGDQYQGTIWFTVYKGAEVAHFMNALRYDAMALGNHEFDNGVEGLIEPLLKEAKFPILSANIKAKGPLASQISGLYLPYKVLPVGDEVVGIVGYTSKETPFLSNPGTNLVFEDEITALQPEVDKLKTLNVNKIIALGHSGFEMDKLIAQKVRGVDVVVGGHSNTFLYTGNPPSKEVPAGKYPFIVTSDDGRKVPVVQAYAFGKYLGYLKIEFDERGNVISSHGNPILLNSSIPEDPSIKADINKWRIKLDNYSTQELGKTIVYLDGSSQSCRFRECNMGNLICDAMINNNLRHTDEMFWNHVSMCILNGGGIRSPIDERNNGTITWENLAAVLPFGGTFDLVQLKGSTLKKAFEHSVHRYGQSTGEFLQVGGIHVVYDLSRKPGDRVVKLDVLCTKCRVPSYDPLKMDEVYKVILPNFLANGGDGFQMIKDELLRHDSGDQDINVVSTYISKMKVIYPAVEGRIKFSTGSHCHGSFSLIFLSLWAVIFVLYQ
Experimental: The assay was performed essentially as previously described ([32]). The enzymatic reaction was performed by mixing 0.36 ng of human CD73 ([33]) with test compound in assay buffer (25 mM Tris, 140 mM sodium chloride, 25 mM sodium dihydrogen phosphate, pH 7.4) and 5 µM of [2,8-^3H]AMP [(specific activity 7.4x10^8 Bq/mmol (20 mCi/mmol)), American Radio-labeled Chemicals, MO, USA, distributed by Hartmann Analytic, Germany]. Compound 7 was used at 800 µg/mL and compound 6 at 20 µg/mL for the selectivity test, while for initial screening compound 5 was tested at a concentration of 55 µM and 6 at 30 µM, and 1 and 2 were tested at 50 IU/mL ( Supplementary Figure 1 ). The enzymatic reaction was performed for 25 min at 37°C in a shaking water bath. Then, 500 µL of cold precipitation buffer (100 mM lanthanum chloride, 100 mM sodium acetate, pH 4.00) was added to stop the reaction and to facilitate precipitation of free phosphate and unconverted [2,8-^3H]-AMP. […] After washing each reaction vial three times with 400 µL of cold (4°C) demineralized water, 5 mL of the scintillation cocktail (ULTIMA Gold XR, PerkinElmer, MA, USA) was added and the radioactivity was measured by scintillation counting (TRICARB 2900 TR, Packard/PerkinElmer; counting efficacy: 49-52%). […]

human NPP5 = biological target: T3, human NPP5 (Homo sapiens, UniProt Q9UJA9); test: NPP5 colorimetric assay, p-Nph-5'-TMP as substrate; type: biochemical; settings: 20 µg/mL (12 µM)
T3 sequence (Q9UJA9 25-477): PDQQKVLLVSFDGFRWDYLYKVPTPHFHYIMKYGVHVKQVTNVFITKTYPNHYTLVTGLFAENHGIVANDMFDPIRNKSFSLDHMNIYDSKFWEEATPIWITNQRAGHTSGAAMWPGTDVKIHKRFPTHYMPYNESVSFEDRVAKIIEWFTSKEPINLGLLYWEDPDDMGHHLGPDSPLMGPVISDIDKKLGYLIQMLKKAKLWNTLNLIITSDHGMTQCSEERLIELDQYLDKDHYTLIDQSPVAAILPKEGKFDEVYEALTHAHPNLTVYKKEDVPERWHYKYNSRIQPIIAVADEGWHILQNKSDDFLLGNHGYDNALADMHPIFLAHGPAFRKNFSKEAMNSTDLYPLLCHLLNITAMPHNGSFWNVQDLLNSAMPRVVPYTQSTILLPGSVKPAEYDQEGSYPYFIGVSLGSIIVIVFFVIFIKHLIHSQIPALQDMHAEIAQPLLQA
Experimental: Compounds 1, 2, 5, 6, and 7 were screened at different concentrations using 400 μM of p-nitrophenyl thymidine monophosphate (p-Nph-5´-TMP) as substrate to study potential inhibition of NPP3 and NPP5 using a colorimetric assay as previously described ([21]). Soluble and purified human NPP3, prepared as previously described ([22]), and human NPP5 ([23]) were diluted in the assay buffer (50 mM TRIS HCl, 2 mM CaCl2, and 0.2 mM ZnCl2, pH 9.00), and 0.09 µg of NPP3, or 0.4 µg of NPP5 were employed. The mixtures were incubated for 30 min at 37°C in case of NPP3, and for 100 min at 37°C in case of NPP5, and the reactions were subsequently terminated by adding 20 μL of 1.0 N aq. NaOH solution. The assay is based on the enzymatic ester hydrolysis of p-Nph-5’-TMP which results in the formation of the yellow p-nitrophenolate anion. The absorption was measured at 400 nm using a BMG PheraStar FS plate reader (BMG Labtech GmbH, Ortenberg, Germany). Each analysis was repeated three times with triplicate measurements.

[1] = cited from earlier work

NPP4 inhibition, selectivity study (human NPP4): no effect | CD73 inhibition, selectivity study (human CD73): no effect | NPP5 inhibition, selectivity study (human NPP5): no effect
SMILES: CO[C@H]1O[C@H](COS(=O)(=O)O)[C@@H](O[C@@H]2O[C@@H](C(=O)O)[C@@H](O[C@H]3O[C@H](COS(=O)(=O)O)[C@@H](O[C@@H]4O[C@H](C(=O)O)[C@@H](O[C@H]5O[C@H](COS(=O)(=O)O)[C@@H](O)[C@H](O)[C@H]5NS(=O)(=O)O)[C@H](O)[C@H]4O)[C@H](OS(=O)(=O)O)[C@H]3NS(=O)(=O)O)[C@H](O)[C@H]2OS(=O)(=O)O)[C@H](O)[C@H]1NS(=O)(=O)O [Compound 6, Fondaparinux]
half-life [1]: 17 h
